What was measured:
eHsp90 = experiment: Competition of fluorescent probe binding to eHsp90 on cells by untethered Hsp90 inhibitors; assay type: cell-based; conditions: for blocking of binding of 100 and HS-27 to eHsp90: untethered Hsp90 inhibitors
Protocol: Cells were plated on uncoated 18-mm round coverslips in 12 well plates at 150,000 cells/well and were allowed to adhere overnight. 100, in a stock solution in DMSO, was diluted in serum-free/phenol red-free DMEM. […] The coverslips were washed and mounted onto microscope slides using FluorSave mounting reagent (Millipore, Darmstadt, Germany). Slides were imaged on a Leica SP5 confocal microscope.
(§1) Images were analyzed for fluorescence and puncta using ImageJ software using a non-biased, high-throughput macro. In brief, cells were selected using an expanded selection from the DAPI channel. The regions of interest were then masked, a watershed filter was applied to split adjacent cells into separate cells, and the regions of interest were applied to the 100 channel to measure fluorescence and puncta. High resolution confocal stacks were deconvolved with Hyugen's Deconvolution Software or AiryScan.
(§2) To analyze the internalization of eHsp90 in transformed cells, the 4T1 cell model was utilized.

[1] = Absorbance and emission maxima of near IR fluorescent probes (Table 1); assay type: physicochemical
MDA-MB-468 cells = experiment: 100 internalization assay in MDA-MB-468 cells; assay type: cell-based
Protocol: Cells were plated on uncoated 18-mm round coverslips in 12 well plates at 150,000 cells/well and were allowed to adhere overnight. 100, in a stock solution in DMSO, was diluted in serum-free/phenol red-free DMEM. After drug incubation, the cells were washed twice with ice-cold PBS, fixed with 1% PFA in PBS for 10 min, and stained with 5 μg/mL wheat germ agglutinin-488 (WGA-488, Invitrogen, Waltham, Mass.) and either Hoescht or DAPI. The coverslips were washed and mounted onto microscope slides using FluorSave mounting reagent (Millipore, Darmstadt, Germany). Slides were imaged on a Leica SP5 confocal microscope.
as §1, §2

[2] = MS analysis of tissues and urine for 100 parent ion after injection; assay type: in vivo, mouse
Text: (§3) Whereas fluorophore-tethered probes are useful for detecting and following uptake of tumors on the skin surface in live animals, even with the most sensitive of far red or nIR detectors, due to light scattering, detection of emitted fluorescent light is limited to a depth of few mm of tissue. However, when used in conjunction with live imaging, 3D cryosectioning enables the biodistribution of fluorescent probes to the histological level throughout the body. Following sacrifice the animal was cryopreserved in liquid N2, then longitudinal cryosectioned at 40-μm slices. Each slice was imaged for fluorescence with an mCherry band filter (excitation 550-590 nm, emission 600-670 nm) as well as bright field (all slice image data can be down loaded at https://goo.gl/Z30dXJ). The images were reconstructed to create a 3D fluorescence and bright field images of the entire mouse anatomy (FIG. 4a). This process allowed for the first time a detailed examination of the complete biodistribution of 100 at the histological level in every organ. A control non-treated mouse was also imaged using an EGFP-mCherry dual band filter set. The limits of detection of 100 by fluorescence are estimated to be at <1-2 μmol. In a parallel study, an MS analysis was conducted on specific fluorescent tissues to confirm the presence of 100 parent ion (m/z=660.0 [M+2]2+).

MDA-MB-468 flank tumors = experiment: Whole mouse 3D cryo-imaging of probe biodistribution, MDA-MB-468 flank xenograft; assay type: in vivo
Protocol: All protocols involving the use of mice were approved beforehand by the IACUC at Duke University and were strictly adhered to throughout the studies. A wild-type 3-month-old male SCID mouse with a right flank xenograft with MDA-MB-468 cells was injected with 25 nmol 100 through the tail vein. Six hours later, the mouse was euthanized, prepared according to the instructions from BioInVision, Inc. (Cleveland, Ohio, USA) and shipped for Cryo-Imaging and reconstruction. An EGFP/mCherry dual band filter set was used for imaging (#59022; Chroma Technology Corporation, Bellows Falls, Vt., USA).
The majority of cells are fully differentiated and not actively dividing, whereas some subpopulations of cells are constantly undergoing division and growth, such as the […] layer lining the intestinal tract. To determine if non-tumor cells express/internalize eHsp90, 3D cyrosectioning of mice bearing MDA-MB-468 flank tumors 6 hours post 100 injection was carried out. Probe uptake into the tumor in the live animal was first confirmed in a Licor instrument.
as §3

Abs. Max [1]	Em. Max [1]	SMILES	blocking of binding of 100 and HS-27 to eHsp90 (eHsp90)	further results
		CC1(C)CC(=O)c2c(C(F)(F)F)nn(-c3ccc(C(N)=O)c(N[C@H]4CC[C@H](O)CC4)c3)c2C1 [SNX2112]	blocked	
		CC(C)c1cc(-c2n[nH]c(=O)n2-c2ccc3c(ccn3C)c2)c(O)cc1O [Ganetespib]	blocked	
803	829	Cc1nn(-c2ccc(C(N)=O)c(NCCCOCCOCCOCCOCCOCCCNC(=O)c3ccc(C4=C(/C=C/C5=[N+](CCCCS(=O)(=O)[O-])c6ccc7ccccc7c6C5(C)C)CCC/C4=C\C=C4\N(CCCCS(=O)(=O)O)c5ccc6ccccc6c5C4(C)C)cc3)c2)c2c1C(=O)CC(C)(C)C2 [Compound 112]		
766	796	Cc1nn(-c2ccc(C(N)=O)c(NCCCOCCOCCOCCOCCOCCCNCc3ccc(C4=C(/C=C/C5=[N+](CCCCS(=O)(=O)[O-])c6ccccc6C5(C)C)CCC/C4=C\C=C4\N(CCCCS(=O)(=O)O)c5ccccc5C4(C)C)cc3)c2)c2c1C(=O)CC(C)(C)C2 [Compound 105, 4-(2-((E)-2-((E)-4′-(21-((2-carbamoyl-5-(3,6,6-trimethyl-4-oxo-4,5,6,7-tetrahydro-1H-indazol-1-yl)phenyl)amino)-6,9,12,15,18-pentaoxa-2-azahenicosyl)-6-(2-((E)-3,3-dimethyl-1-(4-sulfobutyl)indolin-2-ylidene)ethylidene)-3,4,5,6-tetrahydro-[1,1′-biphenyl]-2-yl)vinyl)-3,3-dimethyl-3H-indol-1-ium-1-yl)butane-1-sulfonate]		
		Cc1nn(-c2ccc(C(N)=O)c(NCCCOCCOCCOCCOCCOCCCNCc3ccc(C(=C\C=C4\N(CCCCS(=O)(=O)O)c5ccccc5C4(C)C)/C=C/C4=[N+](CCCCS(=O)(=O)[O-])c5ccccc5C4(C)C)cc3)c2)c2c1C(=O)CC(C)(C)C2 [Compound 100, 4-(2-((1E,3Z)-3-(4-(21-((2-carbamoyl-5-(3,6,6-trimethyl-4-oxo-4,5,6,7-tetrahydro-1H-indazol-1-yl)phenyl)amino)-6,9,12,15,18-pentaoxa-2-azahenicosyl)phenyl)-5-((Z)-3,3-dimethyl-1-(4-sulfobutyl)indolin-2-ylidene)penta-1,3-dien-1-yl)-3,3-dimethyl-3H-indol-1-ium-1-yl)butane-1-sulfonate]		cell permeability (MDA-MB-468 cells): not cell permeable; MS detection of parent ion in intestines ([2]; 6 hr post-drug injection): did not show the presence of the parent 100 ion; concentration of intact parent molecule in tumor ([2]; MS analysis of flank tumor): ~325 nM (w.w.); concentration at 6 h ([2]; SCID, mouse, other: injection, MS analysis of urine, 6 hours): ~50 nM; MS detection of parent ion in eyes ([2]; mouse, in vivo): did not show evidence of the 100 parent ion; route of elimination ([2]; mouse, in vivo): primarily eliminated intact through the kidney; clearance from vasculature (MDA-MB-468 flank tumors; 6 hour time point): cleared from the entire vasculature by the 6 hour time point; probe related fluorescence in major organs (heart, lungs, liver, kidney, spleen, brain, skeletal muscle, stomach, skin, thyroid, prostate, fur) (MDA-MB-468 flank tumors; 6 hour time point): completely devoid of 100 related fluorescence; probe in gut wall or endothelial lining of upper intestine (MDA-MB-468 flank tumors; 6 hours post injection, 25 nmol tail vein): no evidence of 100 in the gut wall or endothelial lining; uptake in skeletal structures, bone marrow, spinal and synovial fluid (MDA-MB-468 flank tumors; 6 hours, confirmed by MS analysis): No uptake; uptake into lymph nodes (MDA-MB-468 flank tumors; SCID mouse, 6 hours): uptake of 100 into the lymph nodes
775	802	Cc1nn(-c2ccc(C(N)=O)c(NCCCOCCOCCOCCOCCOCCCNCc3ccc(C4=C(/C=C/C5=[N+](CCCCS(=O)(=O)[O-])c6ccc(S(=O)(=O)O)cc6C5(C)C)CCC/C4=C\C=C4\N(CCCCS(=O)(=O)O)c5ccc(S(=O)(=O)O)cc5C4(C)C)cc3)c2)c2c1C(=O)CC(C)(C)C2 [Compound 108, 4-(2-((E)-2-((E)-4′-(21-((2-carbamoyl-5-(3,6,6-trimethyl-4-oxo-4,5,6,7-tetrahydro-1H-indazol-1-yl)phenyl)amino)-6,9,12,15,18-pentaoxa-2-azahenicosyl)-6-(2-((E)-3,3-dimethyl-5-sulfo-1-(4-sulfobutyl)indolin-2-ylidene)ethylidene)-3,4,5,6-tetrahydro-[1,1′-biphenyl]-2-yl)vinyl)-3,3-dimethyl-5-sulfo-3H-indol-1-ium-1-yl)butane-1-sulfonate]		
643	670	Cc1nn(-c2ccc(C(N)=O)c(NCCCOCCOCCOCCOCCOCCCNC(=O)c3ccc(C(=C\C=C4\N(CCCCS(=O)(=O)O)c5ccccc5C4(C)C)/C=C/C4=[N+](CCCCS(=O)(=O)[O-])c5ccccc5C4(C)C)cc3)c2)c2c1C(=O)CC(C)(C)C2 [Compound 102, 4-(2-((1E,3Z)-3-(4-((19-((2-carbamoyl-5-(3,6,6-trimethyl-4-oxo-4,5,6,7-tetrahydro-1H-indazol-1-yl)phenyl)amino)-4,7,10,13,16-pentaoxanonadecyl)-carbamoyl)phenyl)-5-((E)-3,3-dimethyl-1-(4-sulfobutyl)indolin-2-ylidene)penta-1,3-dien-1-yl)-3,3-dimethyl-3H-indol-1-ium-1-yl)butane-1-sulfonate]		
803	828	Cc1nn(-c2ccc(C(N)=O)c(NCCCOCCOCCOCCOCCOCCCNCc3ccc(C4=C(/C=C/C5=[N+](CCCCS(=O)(=O)[O-])c6ccc7ccccc7c6C5(C)C)CCC/C4=C\C=C4\N(CCCCS(=O)(=O)O)c5ccc6ccccc6c5C4(C)C)cc3)c2)c2c1C(=O)CC(C)(C)C2 [Compound 111]		
		CC(C)NCCCn1c(Sc2cc3c(cc2I)OCO3)nc2c(N)ncnc21 [PUH71]	blocked	competition of binding of probe 100 to eHsp90 (eHsp90; MDA-MB-468 cells, 100 at 25 μM, 45 min, 1 μM HS-10 or 10 μM PUH71): competed
766	795	Cc1nn(-c2ccc(C(N)=O)c(NCCCOCCOCCOCCOCCOCCCNC(=O)c3ccc(C4=C(/C=C/C5=[N+](CCCCS(=O)(=O)[O-])c6ccccc6C5(C)C)CCC/C4=C\C=C4\N(CCCCS(=O)(=O)O)c5ccccc5C4(C)C)cc3)c2)c2c1C(=O)CC(C)(C)C2 [Compound 106, 4-(2-((E)-2-((E)-4′-((19-((2-carbamoyl-5-(3,6,6-trimethyl-4-oxo-4,5,6,7-tetrahydro-1H-indazol-1-yl)phenyl)amino)-4,7,10,13,16-pentaoxanonadecyl)carbamoyl)-6-(2-((E)-3,3-dimethyl-1-(4-sulfobutyl)indolin-2-ylidene)ethylidene)-3,4,5,6-tetrahydro-[1,1′-biphenyl]-2-yl)vinyl)-3,3-dimethyl-3H-indol-1-ium-1-yl)butane-1-sulfonate]		

Source: patent US11261187B2, “Compounds and methods for targeting HSP90” (Duke University, priority 2016, dated 2022)
